{"source": "PubChem BioAssay (NCI)", "experiment_in_all_cases": "NCI anticancer screen, dose series, 48 h", "key": {"[1]": {"tested_on": "786-0 renal"}, "[2]": {"tested_on": "A498 renal"}, "[3]": {"tested_on": "A549 NSCLC"}, "[4]": {"tested_on": "ACHN renal"}, "[5]": {"tested_on": "BT-549 breast"}, "[6]": {"tested_on": "CAKI-1 renal"}, "[7]": {"tested_on": "CCRF-CEM leukemia"}, "[8]": {"tested_on": "COLO 205 colon"}, "[9]": {"tested_on": "DU-145 prostate"}, "[10]": {"tested_on": "EKVX NSCLC"}, "[11]": {"tested_on": "HCC-2998 colon"}, "[12]": {"tested_on": "HCT-116 colon"}, "[13]": {"tested_on": "HCT-15 colon"}, "[14]": {"tested_on": "HL-60(TB) leukemia"}, "[15]": {"tested_on": "HOP-62 NSCLC"}, "[16]": {"tested_on": "HOP-92 NSCLC"}, "[17]": {"tested_on": "HS 578T breast"}, "[18]": {"tested_on": "HT29 colon"}, "[19]": {"tested_on": "IGROV1 ovarian"}, "[20]": {"tested_on": "KM12 colon"}, "[21]": {"tested_on": "LOX IMVI melanoma"}, "[22]": {"tested_on": "M14 melanoma"}, "[23]": {"tested_on": "MALME-3M melanoma"}, "[24]": {"tested_on": "MCF7 breast"}, "[25]": {"tested_on": "MDA-MB-231 breast"}, "[26]": {"tested_on": "MDA-MB-435"}, "[27]": {"tested_on": "MDA-N"}, "[28]": {"tested_on": "MOLT-4 leukemia"}, "[29]": {"tested_on": "NCI-H226 lung"}, "[30]": {"tested_on": "NCI-H23 lung"}, "[31]": {"tested_on": "NCI-H460 lung"}, "[32]": {"tested_on": "NCI-H522 lung"}, "[33]": {"tested_on": "NCI/ADR-RES ovarian"}, "[34]": {"tested_on": "OVCAR-3 ovarian"}, "[35]": {"tested_on": "OVCAR-4 ovarian"}, "[36]": {"tested_on": "OVCAR-5 ovarian"}, "[37]": {"tested_on": "OVCAR-8 ovarian"}, "[38]": {"tested_on": "PC-3 prostate"}, "[39]": {"tested_on": "RPMI-8226 leukemia"}, "[40]": {"tested_on": "RXF 393 renal"}, "[41]": {"tested_on": "SF-268 CNS"}, "[42]": {"tested_on": "SF-295 CNS"}, "[43]": {"tested_on": "SF-539 CNS"}, "[44]": {"tested_on": "SK-MEL-2 melanoma"}, "[45]": {"tested_on": "SK-MEL-28 melanoma"}, "[46]": {"tested_on": "SK-MEL-5 melanoma"}, "[47]": {"tested_on": "SK-OV-3 ovarian"}, "[48]": {"tested_on": "SN12C renal"}, "[49]": {"tested_on": "SNB-19 CNS"}, "[50]": {"tested_on": "SNB-75 CNS"}, "[51]": {"tested_on": "SR leukemia"}, "[52]": {"tested_on": "SW-620 colon"}, "[53]": {"tested_on": "T-47D breast"}, "[54]": {"tested_on": "TK-10 renal"}, "[55]": {"tested_on": "U251 CNS"}, "[56]": {"tested_on": "UACC-257 melanoma"}, "[57]": {"tested_on": "UACC-62 melanoma"}, "[58]": {"tested_on": "UO-31 renal"}}, "note": "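Five concentrations, 48 hours, 96-well plates. TGI denotes the concentration required for complete inhibition of growth.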", "data": [{"compound": "CC(C)/C(Cl)=N/OC(=O)Nc1ccc(Cl)c(Cl)c1", "values": [{"measurement": "TGI", "setting": "[1]", "value": 3.46, "unit": "µM"}, {"measurement": "TGI", "setting": "[2]", "value": 33.5, "unit": "µM"}, {"measurement": "TGI", "setting": "[3]", "value": 43.4, "unit": "µM"}, {"measurement": "TGI", "setting": "[4]", "value": 3.72, "unit": "µM"}, {"measurement": "TGI", "setting": "[5]", "value": 9.62, "unit": "µM"}, {"measurement": "TGI", "setting": "[6]", "value": 3.17, "unit": "µM"}, {"measurement": "TGI", "setting": "[7]", "value": 3.91, "unit": "µM"}, {"measurement": "TGI", "setting": "[8]", "value": 3.39, "unit": "µM"}, {"measurement": "TGI", "setting": "[9]", "value": 32.5, "unit": "µM"}, {"measurement": "TGI", "setting": "[10]", "value": 3.95, "unit": "µM"}, {"measurement": "TGI", "setting": "[11]", "value": 28.6, "unit": "µM"}, {"measurement": "TGI", "setting": "[12]", "value": 4.65, "unit": "µM"}, {"measurement": "TGI", "setting": "[13]", "value": 5.59, "unit": "µM"}, {"measurement": "TGI", "setting": "[14]", "value": 6.21, "unit": "µM"}, {"measurement": "TGI", "setting": "[15]", "value": 33.1, "unit": "µM"}, {"measurement": "TGI", "setting": "[16]", "value": 3.2, "unit": "µM"}, {"measurement": "TGI", "setting": "[17]", "value": 54.5, "unit": "µM"}, {"measurement": "TGI", "setting": "[18]", "value": 13, "unit": "µM"}, {"measurement": "TGI", "setting": "[19]", "value": 26.4, "unit": "µM"}, {"measurement": "TGI", "setting": "[20]", "value": 32.6, "unit": "µM"}, {"measurement": "TGI", "setting": "[21]", "value": 3.16, "unit": "µM"}, {"measurement": "TGI", "setting": "[22]", "value": 6.52, "unit": "µM"}, {"measurement": "TGI", "setting": "[23]", "value": 4.33, "unit": "µM"}, {"measurement": "TGI", "setting": "[24]", "value": 26.9, "unit": "µM"}, {"measurement": "TGI", "setting": "[25]", "value": 30.2, "unit": "µM"}, {"measurement": "TGI", "setting": "[26]", "value": 15.7, "unit": "µM"}, {"measurement": "TGI", "setting": "[27]", "value": 10.8, "unit": "µM"}, {"measurement": "TGI", "setting": "[28]", "value": 6.2, "unit": "µM"}, {"measurement": "TGI", "setting": "[29]", "value": 32.2, "unit": "µM"}, {"measurement": "TGI", "setting": "[30]", "value": 29.5, "unit": "µM"}, {"measurement": "TGI", "setting": "[31]", "value": 34, "unit": "µM"}, {"measurement": "TGI", "setting": "[32]", "value": 3.25, "unit": "µM"}, {"measurement": "TGI", "setting": "[33]", "value": 32, "unit": "µM"}, {"measurement": "TGI", "setting": "[34]", "value": 6.4, "unit": "µM"}, {"measurement": "TGI", "setting": "[35]", "value": 22.5, "unit": "µM"}, {"measurement": "TGI", "setting": "[36]", "value": 30.2, "unit": "µM"}, {"measurement": "TGI", "setting": "[37]", "value": 32.9, "unit": "µM"}, {"measurement": "TGI", "setting": "[38]", "value": 33.1, "unit": "µM"}, {"measurement": "TGI", "setting": "[39]", "value": 6.92, "unit": "µM"}, {"measurement": "TGI", "setting": "[40]", "value": 26.7, "unit": "µM"}, {"measurement": "TGI", "setting": "[41]", "value": 34.8, "unit": "µM"}, {"measurement": "TGI", "setting": "[42]", "value": 32.2, "unit": "µM"}, {"measurement": "TGI", "setting": "[43]", "value": 28.9, "unit": "µM"}, {"measurement": "TGI", "setting": "[44]", "value": 34.1, "unit": "µM"}, {"measurement": "TGI", "setting": "[45]", "value": 8.5, "unit": "µM"}, {"measurement": "TGI", "setting": "[46]", "value": 27.3, "unit": "µM"}, {"measurement": "TGI", "setting": "[47]", "value": 30.7, "unit": "µM"}, {"measurement": "TGI", "setting": "[48]", "value": 3.42, "unit": "µM"}, {"measurement": "TGI", "setting": "[49]", "value": 50.4, "unit": "µM"}, {"measurement": "TGI", "setting": "[50]", "value": 35.3, "unit": "µM"}, {"measurement": "TGI", "setting": "[51]", "value": "> 100", "unit": "µM"}, {"measurement": "TGI", "setting": "[52]", "value": 4.35, "unit": "µM"}, {"measurement": "TGI", "setting": "[53]", "value": 12.2, "unit": "µM"}, {"measurement": "TGI", "setting": "[54]", "value": 10.9, "unit": "µM"}, {"measurement": "TGI", "setting": "[55]", "value": 43.8, "unit": "µM"}, {"measurement": "TGI", "setting": "[56]", "value": 27.9, "unit": "µM"}, {"measurement": "TGI", "setting": "[57]", "value": 26.5, "unit": "µM"}, {"measurement": "TGI", "setting": "[58]", "value": 28.6, "unit": "µM"}]}]}
